The text below walks through data of paper PMC10890530, “Meirols A–C: Bioactive Catecholic Compounds from the Marine-Derived Fungus Meira sp. 1210CH-42” (Marine Drugs, 2024).

The subject of data set [1] is RPMI-8402, T cell acute lymphocytic leukemia. Put plainly: Cytotoxicity assay, RPMI-8402 blood cancer cell line. The format is cell-based. As to conditions: Homo sapiens, 50% growth inhibitory concentration, triplicate, read-out: Cytotoxic Activity (GI50 ± SD, μM) RPMI-8402. As to the method:
(§1) NMR spectra were acquired with a Bruker AVANCE III 600 spectrometer (Bruker Biospin GmbH, Rheinstetten, Germany) with a 3 mm probe operating at 600 MHz (^1H) and 150 MHz (^13C). Chemical shifts were expressed in ppm with reference to the solvent peaks (δH 3.31 and δC 49.15 ppm for CD3OD). UV spectra were recorded with a Shimadzu UV-1650PC spectrophotometer (Shimadzu Corporation, Kyoto, Japan). IR spectra were obtained on an OPUS FT/IR-ALPHA II spectrophotometer (Bruker OPTIK GmbH & Co. KG, Ettlingen, Germany). Optical rotations were measured with a Rudolph analytical Autopol III S2 polarimeter (Rudolph Research Analytical, Hackettstown, NJ, USA). LR-ESIMS data were obtained with an ISQ EM mass spectrometer. HR-ESIMS data were obtained with a Waters SYNPT G2 Q-TOF mass spectrometer (Waters Corporation, Milford, MA, USA) at the Korea Basic Science Institute (KBSI) in Cheongju, Republic of Korea. ECD spectra were recorded with a JASCO J-1500 circular dichroism spectrometer (JASCO Corporation, Tokyo, Japan) at the Center for Research Facilities, Changwon National University, in Changwon, Republic of Korea. HPLC was performed using a BLS-Class pump (Teledyne SSI, Inc., State College, PA 16803, USA) with a Shodex RI-201H refractive index detector (Shoko Scientific Co., Ltd., Yokohama, Japan). Columns for HPLC were YMC-Triart C18 (250 mm × 10 mm, 5 μm), YMC-Triart C8 (250 mm × 10 mm, 5 μm), and YMC-CHIRAL PREP CD PM (250 mm × 4.6 mm, S-10 μm). RP silica gel (YMC-Gel ODS-A, 12 nm, S-75 μm) was used for open-column chromatography. Organic solvents were purchased as HPLC grade, and ultrapure waters were obtained from the Milipore Mili-Q Direct 8 system. The reagents used in the bioassay were purchased from Sigma-Aldrich and Tokyo Chemical Industry. Cancer cell lines were purchased from the Japanese Cancer Research Resources Bank (JCRB) (NUGC-3, JCRB Cell Bank/Cat. # JCRB0822), the DSMZ-German Collection of Microorganisms and Cell Cultures (RPMI-8402, DSMZ/Cat # ACC 290; WSU-DLCL2, DSMZ/Cat # ACC 575), and the American Type Culture Collection (ATCC) (PC-3, ATCC/Cat. # CRL-1435; MDA-MB-231, ATCC/Cat. # HTB-26; ACHN, ATCC/Cat. # CRL-1611; NCI-H23, ATCC/Cat. # CRL-5800; HCT-15, ATCC/Cat. # CCL-225; HL-60, ATCC/Cat. # CCL-240; Raji, ATCC/Cat # CCL-86; K562, ATCC/Cat # CCL-243; NALM6, ATCC/Cat # CRL-3273; U266, ATCC/Cat # TIB-196).
(§2) The cytotoxic activities of 1–4 were measured using the CellTiter-Glo luminescent cell viability assay (Promega, Madison, WI, USA) and conducted by the […], as previously described. The luminescence signal was quantified using a GloMax-Multi Detection System (Promega, Madison, WI, USA), and GI50 values were determined utilizing a relative GI50 model in GraphPad Prism (GraphPad, San Diego, CA, USA). Doxorubicin was used as the positive control.

The nature of data set [2]: DPPH radical scavenging activity assay. As to conditions: half maximal effective concentration; triplicate; read-out: DPPH Radical Scavenging Activity (EC50 ± SD). As to the method: The DPPH radical scavenging activities of 1–4 were determined by the reported method. In a 96-well plate, 100 μL of sample solution (in MeOH) was mixed with 100 μL of DPPH solution (0.16 mM in MeOH), shaken several times, and then incubated at room temperature for 30 min. The absorbance at 517 nm was recorded. Ascorbic acid was used as the positive control, and the experiments were performed in triplicate.
On the technique in general: Loss of DPPH colour is used to gauge radical scavenging.

The target of the next data set is α-glucosidase. Put plainly: α-glucosidase inhibitory activity assay (pNPG hydrolysis). As to conditions: 50% inhibitory concentration; triplicate; read-out: α-Glucosidase Inhibitory Activity (IC50 ± SD). The format is biochemical. As to the method:
The α-glucosidase inhibitory activity was determined by measuring the absorbance increase resulting from the hydrolysis of p-nitrophenyl-α-D-glucopyranoside (pNPG, TCI) by α-glucosidase at 405 nm using a microplate reader, according to the reference to previously reported literature. The 130 μL sample solution (in 0.1 mM PBS) with the 30 μL α-glucosidase solution (0.2 U/mL) was incubated at 37 °C for 10 min. Subsequently, 40 μL of 5 mM pNPG was added. The reaction mixture was further incubated at 37 °C for 20 min. The α-glucosidase inhibitory activity was determined using a microplate reader at 405 nm. The negative control was prepared by substituting PBS buffer for the sample in the same way as the test.

Data set [3] deals with NALM6, B cell acute lymphocytic leukemia. The data set can be described thus: Cytotoxicity assay, NALM6 blood cancer cell line. The format is cell-based. The conditions noted are these: triplicate, read-out: Cytotoxic Activity (GI50 ± SD, μM) NALM6. As to the method: as §1, §2
Where [4] appears, read: 50% growth inhibitory concentration.
Setting [5] is: Homo sapiens, NALM-6, 50% growth inhibitory concentration.

Like-named read-outs stand apart in the source and are kept apart here.

On to `O=C1NCc2c1ccc(O)c2O` [Compound 2, 4,5-dihydroxyisoindolin-1-one], for which the GI50 (commonly the concentration that inhibits growth by half) in data set [1] is over 30 µM; in data set [3] (setting [4]) it was 29.6 ± 2.27 µM; in data set [3] (setting [5]) it was 29.4 µM. In data set [2], the half-maximal effective concentration (EC50) (as a rule, the concentration giving half of the maximal effect) came to 6.82 ± 0.06 µM. Further, on α-glucosidase, the IC50 (in general, the concentration that gives 50% inhibition) was determined as 199.7 ± 1.87 µM.
Turning to `O=C1O[C@H]([C@@H](O)CO)C(O)=C1O` [Ascorbic acid, reference compound], the EC50 in data set [2] is 7.81 ± 0.25 µM.
For the molecule `COc1cccc2c1C(=O)c1c(O)c3c(c(O)c1C2=O)C[C@@](O)(C(=O)CO)C[C@@H]3O[C@H]1C[C@H](N)[C@H](O)[C@H](C)O1` [Doxorubicin, reference compound], the GI50 in data set [1] was determined as 0.015 ± 0.0013 µM; in data set [3] (setting [5]) it was 0.003 ± 0.0006 µM.
On to `O=C1C[C@@H](O)c2c1ccc(O)c2O` [Compound 3, meirol B], for which the GI50 in data set [1] and in data set [3] (setting [5]) was over 30 µM throughout. In addition, the EC50 in data set [2] came to 6.01 ± 0.07 µM. In addition, the IC50 at α-glucosidase was 367.4 ± 3.01 µM.
Regarding `O=C1c2ccc(O)c(O)c2C[C@@H]1O` [Compound 4, meirol C], the GI50 in data set [1] and in data set [3] (setting [5]) was over 30 µM in each case. Moreover, the EC50 in data set [2] was 6.2 ± 0.12 µM. For the same molecule, on α-glucosidase, the IC50 is over 555 µM.
For `O=C1CCc2c1ccc(O)c2O` [Compound 1, 4,5-dihydroxyindan-1-one], the GI50 was found to be 21 ± 0.47 µM in data set [1], 9.47 ± 0.41 µM in data set [3] (setting [4]) and 9.48 µM in data set [3] (setting [5]). In addition, the EC50 in data set [2] was found to be 7.47 ± 0.13 µM. The IC50 at α-glucosidase was determined as 184 ± 2.93 µM.
